Reference: article PMC11729419, “Thiol-Reactive or Redox-Active: Revising a Repurposing Screen Led to a New Invalidation Pipeline and Identified a True Noncovalent Inhibitor Against Papain-like Protease from SARS-CoV-2” (ACS Pharmacology & Translational Science, 2024)
Like-named read-outs stand apart in the source and are kept apart here.

Legend:
SARS-CoV-2 PLpro-NAB = SARS-CoV-2 PLpro-NAB (Severe acute respiratory syndrome coronavirus 2, UniProt P0DTD1); assay: biochemical; details: for Inhibition in L-cysteine buffer versus DTT buffer (dose-response): 1 mM L-cysteine vs 1 mM DTT; for Inhibitory activity on retest in 1 mM L-cysteine: 50% inhibition at 20 μM; for HC PLpro-NAB inhibition [%] 20 μM triplicates 1 mM DTT buffer / HP PLpro-NAB inhibition [%] 20 μM triplicates 1 mM L-cys buffer / inhibition at 20 µM: average (SD), 20 μM PR619 = 100%
[1] = Table S1, 20 µM, DTT buffer
SARS-CoV-2 PLpro = SARS-CoV-2 PLpro (Severe acute respiratory syndrome coronavirus 2, UniProt P0DTD1); type: biochemical; details: dose-response, ISG15 substrate
SARS-CoV-2 Mpro = SARS-CoV-2 Mpro (Severe acute respiratory syndrome coronavirus 2, UniProt P0DTD1); type: biochemical; details: 10 μM; 1 mM DTT
USP14, USP7, cathepsin-L = type: biochemical, human; details: 10 μM; 1 mM DTT
Method: The assay was performed according to the manufacturer protocol, adapted to 384-well format with a final volume of 10 μL. […] 5 μL of cathepsin-L was added and incubated for 30 min at 25 °C. The enzymatic reaction was initiated by adding 5 μL substrate. […] Final assay concentrations of cathepsin-L and substrate were 0.01 ng/μL and 5 μM, respectively.
Plates were sealed and incubated for 30 min at 25 °C, followed by adding 5 μL/0.5 μM Ubiquitin-AMC (R&D Systems #U-550-050) substrate. The fluorescence signal was measured after 30 min of incubation (Ex/Em = 340/460; EnVision, PerkinElmer). […] The assay buffer is 50 mM Tris, 150 mM NaCl, 1 mM DTT, and 0.01% Tween 20 (pH 7.5).

[2] = test system: SARS-CoV-2 BetaCoV/Belgium/GHB-03021/2020 strain; type: cell-based; details: 300 μM, 2 μM CP-100356

Compound: C/C(=N\NC(=N)N)c1cc(NC(=O)CCCCCCCCC(=O)Nc2cc(/C(C)=N/NC(=N)N)cc(/C(C)=N/NC(=N)N)c2)cc(/C(C)=N/NC(=N)N)c1 [semapimod]
- Inhibition in L-cysteine buffer versus DTT buffer (dose-response) (SARS-CoV-2 PLpro-NAB): did not show variations in inhibition potency or thermal stability
- Inhibitory activity on retest in 1 mM L-cysteine (SARS-CoV-2 PLpro-NAB): retained their inhibitory activity
- HC PLpro-NAB inhibition [%] 20 μM triplicates 1 mM DTT buffer (SARS-CoV-2 PLpro-NAB; hit confirmation, 1 mM DTT buffer, DMSO = 0%, listed as semapimod (EOS)): 140.16 (2.99) %
- HC PLpro-NAB inhibition [%] 20 μM triplicates 1 mM DTT buffer (SARS-CoV-2 PLpro-NAB; hit confirmation, 1 mM DTT buffer, DMSO = 0%, listed as semapimod (FhG)): 118.80 (3.35) %
- HP PLpro-NAB inhibition [%] 20 μM triplicates 1 mM L-cys buffer (SARS-CoV-2 PLpro-NAB; hit profiling, 1 mM L-cys buffer, listed as semapimod (EOS)): 50.46 (6.98) %
- HP PLpro-NAB inhibition [%] 20 μM triplicates 1 mM L-cys buffer (SARS-CoV-2 PLpro-NAB; hit profiling, 1 mM L-cys buffer, listed as semapimod (FhG)): 51.28 (5.64) %
- IC50 (SARS-CoV-2 PLpro-NAB; read-out: HP PLpro-NAB IC50 [μM] duplicates 1 mM L-cys buffer, hit profiling, 1 mM L-cys buffer, listed as semapimod (EOS)): > 20 µM
- IC50 (SARS-CoV-2 PLpro-NAB; read-out: HP PLpro-NAB IC50 [μM] duplicates 1 mM L-cys buffer, hit profiling, 1 mM L-cys buffer, listed as semapimod (FhG)): 14.4 µM
- IC50 (SARS-CoV-2 PLpro-NAB; read-out: HP PLpro-NAB IC50 [μM] triplicates 1 mM DTT buffer, hit profiling, 1 mM DTT buffer, listed as semapimod (EOS)): 1.21 µM
- IC50 (SARS-CoV-2 PLpro-NAB; read-out: HP PLpro-NAB IC50 [μM] triplicates 1 mM DTT buffer, hit profiling, 1 mM DTT buffer, listed as semapimod (FhG)): 5.23 µM
- Interference inhibition [%] 20 µM based on product interference DTT BUFFER ([1]; listed as Semapimod (EOS)): 9.91%
- Interference inhibition [%] 20 µM based on product interference DTT BUFFER ([1]; listed as Semapimod (FhG)): -5.72%
- Potency against PLpro compared with PLpro-NAB (SARS-CoV-2 PLpro): activity exclusively against PLpro-NAB
- Preference PLpro over Mpro (SARS-CoV-2 Mpro): preferential inhibition of PLpro over Mpro
- Selectivity versus human USP14, USP7, cathepsin-L (USP14, USP7, cathepsin-L): active across all of the tested targets

Compound: O=c1cc(-c2cc(O)c(O)c(O)c2)oc2cc(O)c(O)c(O)c12 [DOM_SIM_710, 3′,4’,5′,5,6,7-hexahydroxyflavone]
- Inhibition in L-cysteine buffer versus DTT buffer (dose-response) (SARS-CoV-2 PLpro-NAB): increased inhibition
- Inhibitory activity on retest in 1 mM L-cysteine (SARS-CoV-2 PLpro-NAB): retained their inhibitory activity
- inhibition at 20 µM (SARS-CoV-2 PLpro-NAB; hit confirmation, 1 mM DTT buffer, DMSO = 0%, read-out: HC PLpro-NAB inhibition [%] 20 μM triplicates 1 mM DTT buffer): 65%
- inhibition at 20 µM (SARS-CoV-2 PLpro-NAB; hit profiling, 1 mM L-cys buffer, read-out: HP PLpro-NAB inhibition [%] 20 μM triplicates 1 mM L-cys buffer): 155%
- IC50 (SARS-CoV-2 PLpro-NAB; hit profiling, 1 mM DTT buffer): > 20 µM
- Interference inhibition [%] 20 µM based on product interference DTT BUFFER [1]: 10.43%
- Potency against PLpro compared with PLpro-NAB (SARS-CoV-2 PLpro): higher potency against PLpro compared with PLpro-NAB
- Preference PLpro over Mpro (SARS-CoV-2 Mpro): preferential inhibition of PLpro over Mpro

Compound: CCS(=O)(=O)N1CCC([C@@H](C)n2c(C)c(C(=O)NCc3c(OC)cc(C)[nH]c3=O)c3ccccc32)CC1 [CPI-169]
- Interference inhibition [%] 20 µM based on product interference DTT BUFFER ([1]; listed as CPI-169 (EOS)): 9.34%
- Interference inhibition [%] 20 µM based on product interference DTT BUFFER ([1]; listed as CPI-169 (FhG)): -0.73%
- Spike RNA copy number [2]: reduced the Spike RNA copy number significantly
- Preference PLpro over Mpro (SARS-CoV-2 Mpro): preferential inhibition of PLpro over Mpro
